# Experimental data taken from patent US20250099420A1, “SMALL MOLECULE MODULATORS OF GPR139 COMPLEX” (University of Florida Research Foundation, Incorporated, priority 2022, published 2025).
# Read-outs that look alike come from different tables or passages of the source.
# Columns and labels:
# [1] = test system: parental HEK cells; assay: HEK parental Agonist Counterscreen Assay (non-transfected cells); format: cell-based; conditions: for Averaged Max % Response (±St. Dev.): activity relative to known control
# Description: The high control for the agonist counterscreen was Forskolin not acetylcholine.
# [2] = target: T1, GPR139 (Homo sapiens, UniProt Q6DWJ6); assay: GPR139 Agonist titration / agonist counterscreen assay (calcium detection, HEK-GPR139 cells); format: cell-based; set-up: expressed in transfected cells; host or cells: HEK Aequorin cells, Maxcyte transient transfection; conditions: GPR139 Agonist Activity; for Averaged Max % Response (±St. Dev.): activity relative to known control; for EC50: read-out: EC50
# T1 sequence (Q6DWJ6 1-353): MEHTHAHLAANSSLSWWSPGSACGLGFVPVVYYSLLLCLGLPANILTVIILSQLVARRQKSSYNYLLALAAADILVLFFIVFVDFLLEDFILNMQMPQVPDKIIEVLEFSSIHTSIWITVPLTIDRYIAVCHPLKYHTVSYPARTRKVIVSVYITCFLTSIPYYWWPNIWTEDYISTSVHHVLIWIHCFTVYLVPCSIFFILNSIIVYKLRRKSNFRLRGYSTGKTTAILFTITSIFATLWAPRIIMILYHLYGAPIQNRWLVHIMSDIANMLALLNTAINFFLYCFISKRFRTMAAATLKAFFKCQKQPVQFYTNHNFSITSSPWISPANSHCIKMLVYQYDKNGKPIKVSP
# Experimental: GPR activity was assessed using a calcium detection assay. […] Negative control samples were treated with DMSO. […] Intracellular calcium was measured using Calcium 5.
# [3] = Homo sapiens, HEK293, HEK Agonist Activity, parental non-transfected HEK cells
# [4] = values printed in E-notation without unit
# [5] = Homo sapiens, HEK293, HEK Agonist Activity section of Table 4 (parental HEK counterscreen)
Compound,Lipophilic Efficiency (logD) ([1]; HEK Agonist Activity),Lipophilic Efficiency (logP) ([1]; HEK Agonist Activity),Averaged Max % Response (±St. Dev.) [2] [%],Lipophilic Efficiency (logD) ([2]; based on logD),Lipophilic Efficiency (logP) ([2]; based on logP),Hill Slope ([2]; fitted dose-response curve),Efficiency Ligand ([2]; ligand efficiency),"EC50 [2, 4] [nM]",Lipophilic Efficiency (logD) ([1]; HEK Agonist Activity section),Lipophilic Efficiency (logP) ([1]; HEK Agonist Activity section),Efficiency Ligand [2],Hill Slope [2],Lipophilic Efficiency (logD) [2],Lipophilic Efficiency (logP) [2],EC50 ([2]; HEK-GPR139 cells) [nM],Averaged Max % Response (±St. Dev.) ([1]; HEK Agonist Activity) [%],"EC50 [1, 3] [nM]",Averaged Max % Response (±St. Dev.) ([1]; HEK Agonist Activity section) [%],"EC50 [1, 5] [nM]",other results
CCCCC(=O)OCC(=O)NCc1ccc(C)cc1 [SR-01000042109],,,92.84 ± 12.11,,,,,,2.18,2.18,0.47,1.40,3.80,3.80,363,,,21.12 ± 3.06,> 15000,
O=C(CN1C(=O)NC2(CCc3ccccc3C2)C1=O)Nc1cccc2ccccc12 (centres unmarked) [SR-01000042749],,,74.83 ± 7.16,,,,,,1.39,1.39,0.29,0.27,2.77,2.77,585,,,−8.38 ± 6.55,> 14100,
CC1CCCCN1C(=O)CN1C(=O)C2(CCc3ccccc3C2)NC1=S (centres unmarked) [SR-01000044433],,,96.03 ± 12.11,,,,,,2.90,2.90,0.33,0.97,4.10,4.10,896,,,12.49 ± 3.39,> 14300,
COc1cc(C(C)=O)ccc1OCC(=O)NC(C)CCc1ccccc1 (centres unmarked) [SR-01000048295],1.86,1.86,102.89 ± 3.61,4.43,4.43,0.88,0.40,38.3,,,,,,,,7.53 ± 4.49,> 14300,,,
Cc1ccc(C2(C)NC(=O)N(CC(=O)NCC(C)C)C2=O)cc1 (centres unmarked) [SR-01000048367],3.00,3.00,122.38 ± 5.77,5.64,5.64,0.74,0.45,36.5,,,,,,,,8.71 ± 14.83,> 16000,,,
CN(C(=O)CN1C(=O)NC(C)(c2ccc3ccccc3c2)C1=O)C1CCCCC1 (centres unmarked) [SR-01000048373],,,118.34 ± 15.06,3.96,3.96,0.66,0.34,96.7,1.79,1.79,,,,,,,,9.79 ± 7.30,,EC50 ([1]; HEK Agonist Activity section of Table 4 (parental HEK counterscreen)): > 14300 nM
CCC1CCCCN1C(=O)CN1C(=O)NC(C)(c2ccc3ccccc3c2)C1=O (centres unmarked) [SR-01000048417],1.80,1.80,111.02 ± 13.88,4.73,4.73,0.52,0.38,16.9,,,,,,,,−4.34 ± 6.43,,,,"EC50 ([1]; HEK Agonist Activity, parental non-transfected HEK cells): > 14300 nM"
C=C(C)CN(CC)C(=O)CN1C(=O)NC(C)(c2ccc3ccccc3c2)C1=O (centres unmarked) [SR-01000048841],2.25,2.25,125.61 ± 14.18,5.59,5.59,0.27,0.41,6.7,,,,,,,,15.49 ± 13.53,> 14800,,,

# Second part, led by results:
Lipophilic Efficiency (logD) ([1]; HEK Agonist Activity),Lipophilic Efficiency (logP) ([1]; HEK Agonist Activity),Averaged Max % Response (±St. Dev.) [2] [%],Lipophilic Efficiency (logD) ([2]; based on logD),Lipophilic Efficiency (logP) ([2]; based on logP),Hill Slope ([2]; fitted dose-response curve),Efficiency Ligand ([2]; ligand efficiency),"EC50 [2, 4] [nM]",Lipophilic Efficiency (logD) ([1]; HEK Agonist Activity section),Lipophilic Efficiency (logP) ([1]; HEK Agonist Activity section),Efficiency Ligand [2],Hill Slope [2],Lipophilic Efficiency (logD) [2],Lipophilic Efficiency (logP) [2],EC50 ([2]; HEK-GPR139 cells) [nM],Compound,Averaged Max % Response (±St. Dev.) ([1]; HEK Agonist Activity) [%],"EC50 [1, 3] [nM]",Averaged Max % Response (±St. Dev.) ([1]; HEK Agonist Activity section) [%],"EC50 [1, 5] [nM]",other results
1.79,1.79,94.48 ± 15.59,4.29,4.29,0.61,0.35,46.1,,,,,,,,CCn1c(C)nc2cc(C(=O)NNC(=O)Cc3cccc4ccccc34)ccc21 [SR-01000041378],−2.48 ± 2.57,> 14600,,,
,,100.32 ± 4.53,4.12,4.12,0.79,0.45,,2.20,2.20,,,,,,Cc1ccc(CNC(=O)COC(=O)c2ccc(Br)o2)cc1 [SR-01000042100],,,17.67 ± 3.11,> 14400,
,,101.61 ± 5.25,3.67,3.67,0.62,0.34,54.3,1.24,1.24,,,,,,CCC1(c2ccc(Cl)cc2)NC(=O)N(CC(=O)N2CC3(C)CC2CC(C)(C)C3)C1=O (centres unmarked) [SR-01000045673],,,4.34 ± 4.74,> 14300,
,,89.45 ± 3.28,,,,,,1.88,1.88,0.36,0.73,3.46,3.46,408,CCCC1(CCC)NC(=O)N(CC(=O)NCc2ccc(Cl)cc2)C1=O [SR-01000050884],,,5.22 ± 1.83,> 15400,
